Here are results for seven compounds from patent US20250223559A1, “AXIOLOID: A STEM CELL-BASED MODEL OF HUMAN AXIAL DEVELOPMENT” (KYOTO UNIVERSITY, priority 2022, published 2025).

“And” between values parts separate entries of the source, which are not always exact repeats. Equal entries are not always repeated. “Also recorded” adds a separate entry of the source.

The subject of one test is human Axioloids. The test is described as follows: Axioloid morphogenesis during Matrigel embedding phase (brightfield live imaging, length, segment and somite quantification). It counts as cell-based. The protocol:
Human iPS cells were seeded on iMatrix-511 silk (Nippi) coated dishes at a density of 1.3×10^4 cells/well into 6 well plates 5 days prior to Axioloid induction and used at 60% confluency. All subsequent induction steps were performed in AK02N (Reprocell) medium without component C (AK02N-C). Initially, hiPSCs were pulsed with a strong mesoderm and primitive streak fate inducing combination of bFGF (20 ng ml-1) and WNT agonist CHIR99021 (5 μM) for 24 h. CHIR99021 concentration may need to be adjusted depending on the used iPSC line, but remains usually in the range of 3-5 μM. 24 h after the initial pulse, cells were dissociated with Accutase (Thermo Fisher Scientific) and cultured for 24 h in 96-well U-bottom low attachment plates (Sumilon) at 500 cells/well in 50 μl of AK02N—C based aggregation medium supplemented with CHIR99021 (5 μM), basic FGF (20 ng ml^1), TGFβ inhibitor SB431542 (10 μM) and ROCK inhibitor Y27632 (10 μM). 24 h after aggregation, 150 μl of AK02N-C medium was added into each well and exchanged again after 24 h with 150 μl of fresh AK02N-C medium. 48 h after aggregation Axioloids were transferred one-by-one into BSA-treated 96-well flat-bottom low attachment plates (Watson) and embedded into 80 μl of AK02N-C medium containing 10% growth factor-reduced Matrigel (Corning) and cultured further at 37° C. and 5% CO2 for 24 to 48 h. Depending on the experimental setup Retinoic Acid signaling molecules, i.e. Retinoic Acid (RA) (100 nM), Retinol (ROL) (10 μM) or all trans-Retinal (RAL) (1 μM) were added to the MG containing medium throughout the embedding phase. Small molecule inhibitors of FGF (PD173074 (250 nM)), WNT (XAV939 (2 μM)), RA (BMS493 (2.5 μM)) and Notch (DAPT (25 μM)) signaling were also added during the embedding phase and their effects on Axioloids assessed accordingly. For details of the used recombinant human proteins, small molecule agonists and inhibitors, please see Supplementary Table 1. […]
Periodicity of segmentation was quantified from brightfield live-cell imaging data obtained with an inverted Ti2 microscope system (Nikon) using PlanApo λ 10× objective. […]
Quantification of length or intensity based on imaging data was performed using Fiji^57. Rostrocaudal length of formed segments was quantified from a center plane in z-stack images of Phalloidin-stained Axioloids. The longitudinal axes of Axioloids were measured on bright field images using Segmented Line tool. For quantifying fluorescent intensity of HCR or IHC staining, first, maximum intensity z projection images were created from multi-channel z-stack confocal images, then intensity of each channel was quantified along the longitudinal axis of Axioloids by Segmented Line tool, with a line width which corresponds to approximately 80% of the lateral length of Axioloids. […]

Test [1] relates to segmentation clock gene HES7. Put plainly: HES7:Luciferase reporter oscillation of the segmentation clock in Axioloids. It counts as cell-based, human. The conditions noted are these: for oscillatory activity of the segmentation clock gene HES7: signaling inhibitor added to MG+RAL. On the procedure:
Bioluminescence live-cell imaging of HES7-reporter (201B7Luc) iPSC-derived human Axioloids (201B7Luc) was performed and signal was quantified as previously described^55,56 Briefly, one day before imaging glass-bottom 96-well plates (Iwaki) were coated with 50 μl of 1.5% PVA (Nacalai), the PVA solution was hereby aspirated and the plates dried on top of a clean bench overnight at room temperature. Prior to imaging, Axioloids were set onto coated glass-bottom 96-well plates with 80 μl of AK02N-C medium containing […] D-Luciferin and 10% Matrigel. Small molecule agonists and antagonists of signaling pathways were added according to the experimental setup. Bioluminescence signals of Axioloids induced from the HES7-reporter cell line were recorded on IX83 (Olympus) equipped with iXon EMCCD camera (Andor) cultured in a stage top incubator (Tokai Hit). Signal was acquired with 2×2 binning and 1 min exposure. Cosmic rays were removed from the raw images by applying spike noise filter, then smoothed by median filter. Temporal fluctuation of signal baseline was corrected by background subtraction. Kymograph was generated by averaging luminescence intensity values along the lateral axis of Axioloids and resulted values were aligned in temporal order.
Periodicity of HES7 oscillation was quantified from time-series luminescence intensity data obtained from either live imaging or Kronos HT (Atto) measurements using HES7 reporter-derived Axioloids. For Kronos HT based oscillation measurements, Axioloids were transferred at 72 h (48 h after aggregation) into 24-well film-bottom plates (Eppendorf) covered in 400 μl of embedding medium (+/−MG) supplemented with D-Luciferin (100 μM) (bioWORLD). Axioloid containing culture plates were cultured at 37° C. and 5% CO2. Oscillations were measured for 48 hours and each well was measured for 10 seconds with 8 min intervals. Intensity values were processed using Matlab. Temporal trend was obtained by subtracting moving average (window size of 10 h), and the detrended signal was smoothed by Savitzky-Golay filter (window size of 3 h). Instantaneous oscillation phase was calculated by applying Hilbert transform, then peak detection was performed on cosine values of instantaneous oscillation phase. Peak-to-peak period was then quantified on each n-th oscillation.
A general note: In a reporter assay the amount or activity of a reporter protein is the signal.

Test [2] deals with axioloids from human iPS cells. Put plainly: Axioloid induction and morphogenesis with alternative media, factor concentrations, ECM compounds and retinoid agonist. It counts as cell-based. The protocol: Human iPS cell lines derived from healthy donors, e.g. 409B2 were used in this study. Human iPS cells were maintained in StemFit AK02N (Reprocell) medium supplemented with 50 U penicillin and […] streptomycin (Gibco) on iMatrix-511 silk-coated plates or dishes (Nippi). StemFit AK02N (Reprocell) medium contains three components, A, B and C, all three of which were mixed and used for standard maintenance culture of human iPS cells in humidified incubators at 37° C. and 5% CO2. Used iPS cells were regularly tested and reported negative for mycoplasma contamination.
Based on the axioloid protocol it was explored if alternative compounds, molecules or inhibitors could be used and would support the generation of axioloids from PSCs. It was started by testing if NDiff227 (Takara, Cat: Y40002) medium or RPMI 1640 (Nacalai, Cat: 30264-85) supplemented with B27 either with (Gibco, Cat: 17504-044) or without (in house) retinol could be used as an alternative to AK02N-C induction media. The effects of different concentrations of bFGF (from 5 to 250 ng ml-1), or CHIR99021 (from 2.5 to 10 μM), or SB431542 (from 1.25 to 15 μM) were then tested on axioloid morphology. It was also tested if another member of the FGF superfamily: FGF8b (PeproTech, Cat: 100-25) (from 20 to 250 ng ml^−1) or another TGFβ inhibitor A83-01 (Selleck Chemicals, Cat: S7692) (from 1.25 to 15 μM) could have similar results as described for bFGF and SB431542. Finally, during the embedding phase it was tested if the alternative ECM containing compounds Geltrex (Gibco, Cat: A14132-0), Cultrex (R&D Systems, Cat: 3433-005-01), and ECMgel (Sigma-Aldrich, Cat: E6909) could be used instead of Matrigel and would support axioloid morphogenesis. It was also assessed whether a synthetic RA selective agonist, TTNPB (4-[(E)-2-(5,6,7,8-Tetrahydro-5,5,8,8-tetramethyl-2-naphthalenyl)-1-propenyl]benzoic acid) (Selleck Chemicals, Cat: S4627) could replace vitamin A derivatives such as retinol or retinal.
The generation of a mesoderm-based human induced pluripotent stem cell (iPSC)-derived 3D model of human axial development was recently reported, which is termed ‘axioloids’. […] This was then followed by a 3D aggregation step in the presence of bFGF and CHIR (same concentrations as during 1st step) in addition to 10 μM of SB431542 (TGFβ inhibitor) and 10 μM of Y-27632 (ROCK inhibitor). This step aimed at promoting the commitment of the initial primitive streak cells to a presomitic or paraxial mesoderm (PSM) fate. Formed mesodermal aggregates spontaneously broke symmetry and started elongating and adopted an initial ‘bean-like’ morphology.

For test [3], the system named is axioloids from human iPS cells. The conditions noted are these: Yamanaka, Hamidi et al., Nature 2023; cited from earlier work.

Regarding `CC1(C)CC=C(C#Cc2ccccc2)c2cc(/C=C/c3ccc(C(=O)O)cc3)ccc21` [BMS493], the “somite formation and epithelialization” value in the test with human Axioloids (BMS493 (2.5 μM) added to MG+RAL) was “strongly inhibiting somite formation and epithelialization; also recorded: clear detrimental effect”. Also, in the test with human Axioloids (signaling inhibitor added to MG+RAL during embedding phase), the “overall length of Axioloids” value is “remained stable”. Further, in test [1], the “oscillatory activity of the segmentation clock gene HES7” value is “no effect”.
`CC1=C(/C=C/C(C)=C/C=C/C(C)=C/CO)C(C)(C)CCC1` [ROL, Retinol]: the “stability and epithelialization of forming segments” value with human Axioloids (added during MG embedding phase 72 h-120 h (RA 100 nM, ROL 10 μM, RAL 1 μM), 96 h and 120 h) is “dramatic improvement of the stability and epithelialization of forming segments”. In addition, the “oscillatory activity including periodicity of HES7” value in test [1] (RA, RAL or ROL, with or without MG) is given as “largely no effect”.
Take `NC(=O)c1ccc(-c2nc(-c3ccc4c(c3)OCO4)c(-c3ccccn3)[nH]2)cc1` [SB431542, 4-(4-(benzo[d][1,3]dioxol-5-yl)-5-(pyridine-2-yl)-1H-imidazol-2-yl)benzamide]: in test [2] (1.25 to 15 μM tested), the “activity over concentrations for axioloid induction” value was “active and effective over a large range of concentrations”. Further, in test [3], the “requirement for proper axioloid induction” value is “necessary and sufficient”.
As to `Cc1c[nH]c(-c2cnc(NCCNc3ccc(C#N)cn3)nc2-c2ccc(Cl)cc2Cl)n1` [CHIR99421, 6-[2-[4-(2,4-Dichlorophenyl)-5-(4-methyl-1H-imidazol-2-yl)pyrimidin-2-ylamino]ethylamino]pyridine-3-carbonitrile], in test [2], the “concentration that might work for most PSC lines” value is listed as “around 5 μM” and the “influence of concentration on success of axioloid generation” value is “most critical factor determining the overall success rate of axioloid generation”. Further, the “axioloid induction and morphology” value in test [2] (2 μM or 2.5 μM) is “round cellular aggregates with no sign of symmetry breaking or elongation”. For the same compound, the “axioloid induction and morphology” value in test [2] (3 μM) is listed as “formation of elongated neural tube-like structures”. Further, in test [2] (7.5 μM or 10 μM), the overall axioloid length result is listed as “some negative impact on overall axioloid length” and the overall axioloid morphology result was “no dramatic effect on overall axioloid morphology”. Moreover, the “dependence of outcome on cell line” value in test [2] (CHIR concentrations during induction) was “variable outcomes depending on the utilized cell line”. Further, the “formation of primitive streak-like cells from human PSCs” value in test [2] (initial 2D induction with both bFGF (20 ng/ml) and CHIR99421 (5 µM)) is “efficiently and reproducibly promoted the formation of primitive streak-like cells”. For the same compound, the “requirement for proper axioloid induction” value in test [3] is “necessary and sufficient”.
With `C[C@H](NC(=O)Cc1cc(F)cc(F)c1)C(=O)N[C@H](C(=O)OC(C)(C)C)c1ccccc1` [DAPT], in test [1], the “oscillatory activity of the segmentation clock gene HES7” value was “quick damping and loss of oscillatory activity”.
As for `Cc1cccc(-c2nn(C(=S)Nc3ccccc3)cc2-c2ccnc3ccccc23)n1` [A-83-01], in test [2], the “concentration giving best results” value was 1.25 µM and 2.5 µM; the “substitution for the standard component (bFGF or SB431542)” value is “can be used as an alternative to SB431542”. Also, the axioloid morphogenesis result in test [2] (different concentrations (1.25 to 15 μM)) was “recapitulate hallmarks of proper axioloids morphogenesis”.
Take `C/C(=C\c1ccc(C(=O)O)cc1)c1ccc2c(c1)C(C)(C)CCC2(C)C` [TTNPB, 4-[(E)-2-(5,6,7,8-Tetrahydro-5,5,8,8-tetramethyl-2-naphthalenyl)-1-propenyl]benzoic acid]: in test [2] (10% MG), the “axioloid morphology and somite epithelialization compared with ROL, RAL, RA” value was “overall similar effect on axioloid morphology and somite epithelialization”; the replacement of retinoids entry is recorded as “could be used in replacement of retinoids”.
